Laboratory results as given in patent publication US10450299B2, “Substituted quinazoline derivatives as DNA methyltransferase inhibitors” (Pierre Fabre Medicament, priority 2015, dated 2019).

Legend:
[1] = test system: luciferase reporter gene under the control of the partially methylated CMV promoter in KG-1 cell line; experiment: Gene expression (CMV-Luc reactivation) in KG-1 cells; format: cell-based, human; details: 24 h, induction factor vs DMSO control, mean of 3 experiments ± standard error; for Reactivation fold of luciferase gene reporter, 0.1 μM: compound at 0.1 μM; for Reactivation fold of luciferase gene reporter, 1 μM: compound at 1 μM; for Reactivation fold of luciferase gene reporter, 5 μM: compound at 5 μM; for Reactivation fold of luciferase gene reporter, 10 μM: compound at 10 μM
Protocol: Gene Expression. (CMV-Luc Reactivation)
KG-1 cell line, stably transfected with the luciferase Firefly (Luc+ from pGL3 by Promega) reporter gene under the control of the CMV promoter (from pEGFP-N1 by Clontech) partially methylated (50%), is seeded at 20,000 cell per well in 96-well plate. After 24 h of incubation in the presence of the compounds or the solvant DMSO, the induction of the promoter is measured by quantification of luciferase with the Brite-lite™ assay system (Perkin Elmer) according to the manufacturer protocol. The luminescence is measured on EnVision™ Multilabel Plate Reader (Perkin Elmer) and the data are expressed in induction factor compared to the DMSO control condition.

[2] = target: T1, human C-terminal DNMT3A (a.a. 623-908) (Homo sapiens, UniProt Q9Y6K1); experiment: DNMT3A assay (restriction-based fluorescence assay); format: biochemical; details: for inhibition at 1 µM: compound at 1 μM; for inhibition at 3.2 µM: compound at 3.2 μM
T1 construct: The human C-terminal DNMT3A (a.a. 623-908); made in house
Text: DNMT3A enzyme inhibition was adapted from the restriction-based fluorescence assay protocol described in Ceccaldi et al. (ChemBioChem 2011, 12, 1337-45). Briefly, a 5′-labelled biotin oligonucleotide is hybridized to its complementary strand labelled with 6-carboxyfluorescein at the 3′-end into a 384 well microplate (black Optiplates; Perkin Elmer) pre-coated with avidin. The duplex contains a unique CpG site overlapping with a restriction site of a methylation sensitive restriction enzyme. The human C-terminal DNMT3A (a.a. 623-908), produced as described in Gros et al. (Nucleic Acids Research 2013 41(19):e185), was added in each well (200 ng/well) and mixed with the chemical compounds at desired concentrations and freshly prepared AdoMet (20 μM final concentration) to start the reaction in a total volume of 50 μL. After 1 hour incubation at 37° C. each well were washed three times with PBS, Tween-20 0.05%, NaCl (500 mM) and three more times with PBST. Specific fluorescent signals were detected with the methylation-sensitive restriction enzyme HpyCH4IV (NEB) as described and measured on a Perkin Elmer Envision detector. The percentage of inhibition is reported. The formula used to calculate the percentage of inhibition is [(X−Y)/X]×100, where X is the signal determined in the absence of the inhibitor and Y is the signal obtained in the presence of the inhibitor. The concentration at which 50% of efficacy of inhibition is observed (EC50) was determined by analysis of a concentration range of the tested compound in triplicates. The non-linear regression fittings with sigmoidal dose-response (variable slope) were performed with GraphPad Prism 4.03 (GraphPad Software).

[3] = target: T2, His-DNMT1 (182 kDa, human) (Homo sapiens, UniProt P26358); experiment: DNMT1 assay (tritiated SAM Flashplate methylation assay); format: biochemical; details: for inhibition at 10 µM: compound at 10 μM; for inhibition at 32 µM: compound at 32 μM
T2 construct: His; made in house
Protocol: His-DNMT1 (182 kDa, human) was cloned, expressed and purified as described in Halby et al. (ChemBioChem 2012, 13, 157-65). The reaction was performed in a 10 μL total reaction volume in low volume NBS™ 384-well microplates (Corning), containing the tested compound (up to 1% DMSO), 1 μM of a SAM/[methyl-^3H] SAM (3 TBq/mmol, PerkinElmer) mix in a ratio of 3-to-1 (isotopic dilution 1*:3), 0.3 μM of biotinylated hemimethylated DNA duplex (5′-GATmCGCmCGATGmCGmCGAATmCGmCGATmCGATGmCGAT-3′ and BIOT-5′-[…]-3′), and 90 nM of DNMT1 in methylation buffer (20 mM HEPES pH 7.2, 1 mM EDTA, 50 mM KCl, 25 μg/mL BSA). The reaction was incubated at 37° C. for 2 hours. 8 μL are then transferred into a streptavidin 96-well scintillant coated Flashplate™ (PerkinElmer) containing 190 μL of 20 μM SAH in 50 mM Tris-HCl pH 7.4. The Flashplate™ was agitated at room temperature for 1 hour, washed three times with 200 μL of 0.05% Tween®-20 in 50 mM Tris-HCl pH 7.4, and read in 200 μL of 50 mM Tris-HCl pH 7.4 on TopCount NXT™ (PerkinElmer).

[4] = test system: KG-1 human leukemia cells; experiment: Anti-proliferative activity on KG-1 (ATPLite cell viability); format: cell-based; details: KG-1 cells; for inhibition at 0.1 µM: compound at 0.1 μM, read-out: % proliferation inhibition 0.1 μM; for inhibition at 1 µM: compound at 1 μM, read-out: % proliferation inhibition 1 μM; for inhibition at 5 µM: compound at 5 μM, read-out: % proliferation inhibition 5 μM; for inhibition at 10 µM: compound at 10 μM, read-out: % proliferation inhibition 10 μM
Protocol: Anti-Proliferative Activity. (on KG-1)
KG-1 human leukemia cells were obtained from the ATCC (USA) and cultivated in RPMI 1640 medium (with HEPES and Glutamine, BE12-115F, Lonza, France) supplemented with, respectively, 20% and 15% foetal calf serum (Lonza, France), at 37° C. and under 5% CO2. To measure the anti-proliferative properties of tested molecules, 2×10^4 cells are seeded at day 0 in a 96 wells plate. The compounds to be tested, stored at −20° C. as 10^−2 M stock solution in 100% DMSO, are freshly diluted on day 1 in RPMI 1640 medium, before adding a dose range of 3.2 nM to 10 μM to the cells. This treatment is repeated on day 2 and 3, and on day 4 cell viability is assessed using the ATPLite™ kit from Perkin (ATPlite™ 1 Step Luminescence Assay System, ref 3016739), following the provider instructions. The raw data are analyzed with GraphPad Prism software (v4.03) to generate EC50 values corresponding to the compound concentrations giving 50% reduction in cell viability. The values presented are the mean results of at least two independent experiments. […]
At the end of the experiment, cell viability was evaluated by determining the level of ATP released by viable cells.
EC50 values were determined with curve fitting analysis method (non linear regression model with a sigmoid dose response, variable Hill slope coefficient) provided by the Prism Software (GraphPad). Results were expressed as average EC50 values (concentration of tested compound that inhibits 50% of the maximum effect for the considered compound).

T1 sequence (Q9Y6K1 627-912): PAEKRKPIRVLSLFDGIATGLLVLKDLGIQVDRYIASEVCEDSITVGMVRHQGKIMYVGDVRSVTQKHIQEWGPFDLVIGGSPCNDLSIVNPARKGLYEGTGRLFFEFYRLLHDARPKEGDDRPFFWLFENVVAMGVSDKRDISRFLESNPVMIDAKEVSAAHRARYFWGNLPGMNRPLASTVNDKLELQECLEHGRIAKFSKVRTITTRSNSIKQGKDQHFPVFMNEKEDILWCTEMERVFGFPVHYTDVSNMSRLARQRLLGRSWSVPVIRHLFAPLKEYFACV
T2 sequence (P26358 whole entry): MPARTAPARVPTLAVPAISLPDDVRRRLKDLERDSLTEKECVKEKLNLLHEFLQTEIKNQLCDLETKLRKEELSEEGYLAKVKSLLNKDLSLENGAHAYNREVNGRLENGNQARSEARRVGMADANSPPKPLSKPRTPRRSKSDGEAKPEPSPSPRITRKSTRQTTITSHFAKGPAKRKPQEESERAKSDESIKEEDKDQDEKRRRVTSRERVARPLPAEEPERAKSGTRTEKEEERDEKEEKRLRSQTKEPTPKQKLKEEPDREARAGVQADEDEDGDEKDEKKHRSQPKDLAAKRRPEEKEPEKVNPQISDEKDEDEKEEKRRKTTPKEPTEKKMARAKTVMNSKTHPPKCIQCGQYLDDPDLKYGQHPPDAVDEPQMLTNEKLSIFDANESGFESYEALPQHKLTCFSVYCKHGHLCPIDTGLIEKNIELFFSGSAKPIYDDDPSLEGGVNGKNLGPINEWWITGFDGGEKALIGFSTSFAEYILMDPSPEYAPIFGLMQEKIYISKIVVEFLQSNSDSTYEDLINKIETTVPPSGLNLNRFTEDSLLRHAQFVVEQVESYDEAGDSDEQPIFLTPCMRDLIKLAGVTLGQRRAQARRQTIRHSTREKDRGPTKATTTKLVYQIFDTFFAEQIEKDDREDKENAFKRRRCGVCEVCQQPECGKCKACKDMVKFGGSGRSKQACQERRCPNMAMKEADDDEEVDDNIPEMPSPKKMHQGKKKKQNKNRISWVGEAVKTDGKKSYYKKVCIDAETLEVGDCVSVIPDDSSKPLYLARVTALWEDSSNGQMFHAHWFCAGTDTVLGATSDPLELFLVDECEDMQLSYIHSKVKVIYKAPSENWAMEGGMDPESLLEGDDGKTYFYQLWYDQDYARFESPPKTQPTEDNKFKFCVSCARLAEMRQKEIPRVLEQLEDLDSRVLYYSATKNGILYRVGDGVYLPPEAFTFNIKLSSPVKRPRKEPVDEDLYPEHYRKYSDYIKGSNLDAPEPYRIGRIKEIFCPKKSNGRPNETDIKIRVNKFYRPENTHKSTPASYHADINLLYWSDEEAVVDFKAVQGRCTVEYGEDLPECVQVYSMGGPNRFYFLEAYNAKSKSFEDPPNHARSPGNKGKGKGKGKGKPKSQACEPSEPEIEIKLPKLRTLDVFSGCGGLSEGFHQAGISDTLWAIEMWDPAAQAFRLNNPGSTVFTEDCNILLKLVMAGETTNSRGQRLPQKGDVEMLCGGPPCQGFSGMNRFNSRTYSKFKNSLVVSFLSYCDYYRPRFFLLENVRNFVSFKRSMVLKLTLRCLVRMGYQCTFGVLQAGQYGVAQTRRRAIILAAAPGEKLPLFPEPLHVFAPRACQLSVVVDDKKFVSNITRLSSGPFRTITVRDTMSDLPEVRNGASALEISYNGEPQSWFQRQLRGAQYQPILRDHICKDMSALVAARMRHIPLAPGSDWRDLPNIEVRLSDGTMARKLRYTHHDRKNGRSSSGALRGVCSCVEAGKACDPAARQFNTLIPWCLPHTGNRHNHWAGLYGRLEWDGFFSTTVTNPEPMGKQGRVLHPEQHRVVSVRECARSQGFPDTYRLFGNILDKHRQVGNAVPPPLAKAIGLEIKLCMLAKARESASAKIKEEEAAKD

SMILES | Reactivation fold of luciferase gene reporter, 0.1 μM [1] [fold] | Reactivation fold of luciferase gene reporter, 1 μM [1] [fold] | Reactivation fold of luciferase gene reporter, 5 μM [1] [fold] | Reactivation fold of luciferase gene reporter, 10 μM [1] [fold] | inhibition at 1 µM [2] [%] | inhibition at 3.2 µM [2] [%] | inhibition at 10 µM [3] [%] | inhibition at 32 µM [3] [%] | inhibition at 0.1 µM [4] [%] | inhibition at 1 µM [4] [%] | inhibition at 5 µM [4] [%] | inhibition at 10 µM [4] [%] | EC50 [3] [µM] | melting point [°C] | EC50 [2] [µM] | EC50 ([4]; 96 h, treatment on days 1-3, viability on day 4 (ATPLite)) [µM]
Oc1ccc2c(NCCCc3ccccc3)ncnc2c1CN1CCN(CCNc2ccnc3ccccc23)CC1 [Compound A, 4-((3-phenylpropyl)amino)-8-((1-(2-(quinolin-4-ylamino)ethyl)piperazin-1-ylmethyl))quinazoline-7-ol] | 1.1 ± 0.1 | 1.2 ± 0.1 | 4.4 ± 0.5 | 6.0 ± 0.6 | 0 | 18 | 0 | 0 | -0.8 | 6.1 | 29.7 | 84.5 | – | – | – | –
Clc1nc(NCCCc2ccccc2)c2ccc(OCC3CCN(CCNc4ccnc5ccccc45)CC3)cc2n1 [Compound B, 4-((3-phenylpropyl)amino)-2-chloro-7-((1-(2-(quinolin-4-ylamino)ethyl)piperidin-4-yl)methoxy)quinazoline] | 1.1 ± 0.0 | 1.4 ± 0.0 | 5.8 ± 1.6 | 0.0 ± 0.0 | 0 | 73 | 5 | 93 | -1.7 | 3.8 | 95.9 | 99.9 | 19 | – | – | –
CN1CCN(c2nc(NCCCc3ccccc3)c3ccc(OCC4CCN(CCNc5ccnc6ccccc56)CC4)cc3n2)CC1 [Compound C, 4-((3-phenylpropyl)amino)-7-((1-(2-(quinolin-4-ylamino)ethyl)piperidin-4-yl)methoxy)-2-(4-methylpiperazin-1-yl)quinazoline] | 1.1 ± 0.0 | 1.7 ± 0.1 | 0.1 ± 0.0 | 0.0 ± 0.0 | 0 | 43 | 0 | 94 | -3.1 | 5.7 | 99.1 | 99.7 | 23 | – | – | –
CCN(CC)CCNc1nc(NCCCc2ccccc2)c2ccc(OCC3CCN(CCNc4ccnc5ccccc45)CC3)cc2n1 [Compound D, 4-((3-phenylpropyl)amino)-N^2-(2-(diethylamino)ethylenediamine)-7-((1-(2-(quinolin-4-ylamino)ethyl)piperidin-4-yl)methoxy)quinazoline] | 1.1 ± 0.0 | 1.7 ± 0.0 | 12.7 ± 0.6 | 1.1 ± 1.0 | 52 | 81 | 35 | 98 | -2.3 | 13.2 | 79.7 | 99.5 | 13 | – | – | –
c1ccc(CN2CCC(Nc3nc(N4CCN(c5ccccc5)CC4)nc4cc(OCC5CCN(CCNc6ccnc7ccccc67)CC5)ccc34)CC2)cc1 [Compound G, N-(1-benzylpiperidin-4-yl)-2-(4-phenylpiperazin-1-yl)-7-((1-(2-(quinolin-4-ylamino)ethyl)piperidin-4-yl)methoxy)quinazolin-4-amine] | 1.1 ± 0.0 | 5.3 ± 0.4 | 0.2 ± 0.1 | 0.0 ± 0.0 | 57 | 95 | 54 | 100 | -2.2 | 32.2 | 99.6 | 99.8 | 10 | 122 to 124 | – | –
Clc1nc(NCCCc2ccccc2)c2ccc(OCC3CCN(CCNc4ccncc4)CC3)cc2n1 [Compound H] | – | – | – | – | 0 | 32 | – | – | – | – | – | – | – | – | – | –
COc1cc2c(NC3CCN(Cc4ccccc4)CC3)nc(N3CCN(c4ccccc4)CC3)nc2cc1OCC1CCN(CCNc2ccnc3ccccc23)CC1 [E, N-(1-benzylpiperidin-4-yl)-6-methoxy-2-(4-phenylpiperazin-1-yl)-7-((1-(2-(quinolin-4-ylamino)ethyl)piperidin-4-yl)methoxy)quinazolin-4-amine] | 1.1 ± 0.0 | 3.5 ± 0.0 | 1.3 ± 1.2 | 0.0 ± 0.0 | 74 | 100 | 59 | 100 | -2.3 | 15.4 | 92.1 | 99.8 | 10 | 124 to 126 | 0.6 | 2.5
